Test results: patent publication US10144732B2 (BIOGEN MA INC., priority 2014, dated 2018)
Structures can show the parent of a compound that is named as a salt. Where two headings read alike, the source gives them in different places.

Molecular target: T1, Human ATX protein (Homo sapiens, UniProt Q13822)
T1 construct: made in house
Assay: ATX biochemical assay (FRET, FS-3 substrate)
Details: FS-3 2 μM, ATX 1.0 μg/mL, 30 minutes preincubation, 2 hours reaction at room temperature
In short: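 FRET read-out: cleavage of FS-3 (2 μM final) unquenches fluorescein, measured at 485/538 nm after 2 h at room temperature. Before substrate addition, in-house-expressed human autotaxin (1.0 μg/mL) sat with compound for 30 min in pH 7.4 Tris/NaCl/KCl/CaCl2/MgCl2 buffer containing fatty acid free-BSA at 1 mg/mL.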

Row | SMILES | IC50 (FRET assay, read-out: IC50) | IC50 (IC50, FRET assay)
1 | O=C(CC1CCN2CCCC2C1)N1CCc2c(C(F)(F)F)nn(Cc3ccc(Cl)cc3F)c2C1 (stereo not drawn) [Example 1-33, 1-(1-(4-Chloro-2-fluorobenzyl)-3-(trifluoromethyl)-4,5-dihydro-1H-pyrazolo[3,4-c]pyridin-6(7H)-yl)-2-(octahydroindolizin-7-yl)ethanone TFA salt] | ≤ 0.1 µM | –
2 | O=C(Cc1ccncc1)N1CCc2c(C(F)(F)F)nn(Cc3ccc(Cl)cc3F)c2C1 [Example 1-7, 1-(1-(4-Chloro-2-fluorobenzyl)-3-(trifluoromethyl)-4,5-dihydro-1H-pyrazolo[3,4-c]pyridin-6(7H)-yl)-2-(pyridin-4-yl)ethanone] | > 10 µM | –
3 | O=C(C[C@H]1CC[C@H](C(=O)O)CC1)N1CCc2c(C(F)(F)F)nn(Cc3ccc(Cl)cc3F)c2C1 [Example 5-1, trans-4-(2-(1-(4-Chloro-2-fluorobenzyl)-3-(trifluoromethyl)-4,5-dihydro-1H-pyrazolo[3,4-c]pyridin-6(7H)-yl)-2-oxoethyl)cyclohexanecarboxylic acid] | ≤ 0.1 µM | –
4 | O=C(CC1CCN2CCCC2C1)N1CCc2c(C(F)(F)F)nn(Cc3ccc(F)cc3)c2C1 (stereo not drawn) [Example 1-34, 1-(1-(4-Fluorobenzyl)-3-(trifluoromethyl)-4,5-dihydro-1H-pyrazolo[3,4-c]pyridin-6(7H)-yl)-2-(octahydroindolizin-7-yl)ethanone TFA salt] | ≤ 0.1 µM | –
5 | CCOC(=O)[C@H]1CC[C@H](CC(=O)N2CCc3c(C(F)(F)F)nn(Cc4cccs4)c3C2)CC1 [Example 1-46, trans-Ethyl-4-(2-oxo-2-(1-(thiophen-2-ylmethyl)-3-(trifluoromethyl)-4,5-dihydro-1H-pyrazolo[3,4-c]pyridin-6(7H)-yl)ethyl)cyclohexanecarboxylate] | ≤ 0.1 µM | –
6 | O=C(C[C@H]1CC[C@@H](C(=O)O)CC1)N1CCc2c(C(F)(F)F)nn(Cc3ccc(Cl)s3)c2C1 [Example 5-25, cis-4-(2-(1-((5-Chlorothiophen-2-yl)methyl)-3-(trifluoromethyl)-4,5-dihydro-1H-pyrazolo[3,4-c]pyridin-6(7H)-yl)-2-oxoethyl)cyclohexanecarboxylic acid] | ≤ 0.1 µM | –
7 | O=C(C[C@H]1CC[C@H](C(=O)O)CC1)N1CCc2c(C(F)(F)F)nn(Cc3ccc(F)c(F)c3)c2C1 [Example 5-31, trans-4-(2-(1-(3,4-Difluorobenzyl)-3-(trifluoromethyl)-4,5-dihydro-1H-pyrazolo[3,4-c]pyridin-6(7H)-yl)-2-oxoethyl)cyclohexanecarboxylic acid] | ≤ 0.1 µM | –
8 | CCOC(=O)[C@H]1CC[C@H](CC(=O)N2CCc3c(C(F)(F)F)nn(Cc4ccsc4)c3C2)CC1 [Example 1-45, trans-Ethyl-4-(2-oxo-2-(1-(thiophen-3-ylmethyl)-3-(trifluoromethyl)-4,5-dihydro-1H-pyrazolo[3,4-c]pyridin-6(7H)-yl)ethyl)cyclohexanecarboxylate] | ≤ 0.1 µM | –
9 | CCOC(=O)[C@H]1CC[C@H](CC(=O)N2CCc3c(C(F)(F)F)nn(Cc4ccc(F)cc4F)c3C2)CC1 [Example 1-50, trans-Ethyl 4-(2-(1-(2,4-difluorobenzyl)-3-(trifluoromethyl)-4,5-dihydro-1H-pyrazolo[3,4-c]pyridin-6(7H)-yl)-2-oxoethyl)cyclohexanecarboxylate] | ≤ 0.1 µM | –
10 | N#Cc1nn(Cc2ccc(F)cc2)c2c1CCN(C(=O)C[C@H]1CC[C@H](C(=O)O)CC1)C2 [Example 5-46, trans-4-(2-(3-Cyano-1-(4-fluorobenzyl)-4,5-dihydro-1H-pyrazolo[3,4-c]pyridin-6(7H)-yl)-2-oxoethyl)cyclohexanecarboxylic acid] | ≤ 0.1 µM | –
11 | CCOc1nn(Cc2ccc(F)cc2)c2c1CCN(C(=O)C[C@H]1CC[C@H](C(=O)O)CC1)C2 [Example 5-42, trans-4-(2-(3-Ethoxy-1-(4-fluorobenzyl)-4,5-dihydro-1H-pyrazolo[3,4-c]pyridin-6(7H)-yl)-2-oxoethyl)cyclohexanecarboxylic acid] | ≤ 0.1 µM | –
12 | CCOC(=O)[C@H]1CC[C@@H](CC(=O)N2CCc3c(C(F)(F)F)nn(Cc4cc(F)cc(Cl)c4)c3C2)CC1 [Example 2-4, cis-ethyl 4-(2-(1-(3-chloro-5-fluorobenzyl)-3-(trifluoromethyl)-4,5-dihydro-1H-pyrazolo[3,4-c]pyridin-6(7H)-yl)-2-oxoethyl)cyclohexanecarboxylate] | ≤ 0.1 µM | –
13 | O=C(C[C@H]1CC[C@H](C(=O)O)CC1)N1CCc2c(C(F)(F)F)nn(Cc3ccsc3)c2C1 [Example 5-27, trans-4-(2-Oxo-2-(1-(thiophen-3-ylmethyl)-3-(trifluoromethyl)-4,5-dihydro-1H-pyrazolo[3,4-c]pyridin-6(7H)-yl)ethyl)cyclohexanecarboxylic acid] | ≤ 0.1 µM | –
14 | O=C(CC1CCCCC1)N1CCc2c(C(F)(F)F)nn(Cc3ccc(Cl)cc3F)c2C1 [Example 1-5, 1-(1-(4-Chloro-2-fluorobenzyl)-3-(trifluoromethyl)-4,5-dihydro-1H-pyrazolo[3,4-c]pyridin-6(7H)-yl)-2-cyclohexylethanone] | ≤ 0.1 µM | –
15 | CN1C2CCC1CC(CC(=O)N1CCc3c(C(F)(F)F)nn(Cc4ccc(Cl)cc4F)c3C1)C2 (stereo not drawn) [Example 10-1, 1-(1-(4-Chloro-2-fluorobenzyl)-3-(trifluoromethyl)-4,5-dihydro-1H-pyrazolo[3,4-c]pyridin-6(7H)-yl)-2-(8-methyl-8-aza-bicyclo[3.2.1]octan-3-yl)ethanone TFA salt] | – | ≤ 0.1 µM
16 | O=C(O)C1CC2COCC(C1)N2CC(=O)N1CCc2c(C(F)(F)F)nn(Cc3ccc(F)cc3)c2C1 (stereo not drawn) [Example 13-26, 9-(2-(1-(4-Fluorobenzyl)-3-(trifluoromethyl)-4,5-dihydro-1H-pyrazolo[3,4-c]pyridin-6(7H)-yl)-2-oxoethyl)-3-oxa-9-azabicyclo[3.3.1]nonane-7-carboxylic acid TFA salt] | – | ≤ 0.1 µM
17 | O=C(N1CCc2c(C(F)(F)F)nn(Cc3ccc(F)cc3)c2C1)C12CCN(CC1)CC2 [Example 1-36, (1-(4-Fluorobenzyl)-3-(trifluoromethyl)-4,5-dihydro-1H-pyrazolo[3,4-c]pyridin-6(7H)-yl)(quinuclidin-4-yl)methanone TFA salt] | 0.25 to 0.5 µM | –

Continued, in another order:

Row | IC50 (FRET assay, read-out: IC50) | SMILES | IC50 (IC50, FRET assay)
18 | ≤ 0.1 µM | O=C(O)CN1CCC(C(=O)N2CCc3c(C(F)(F)F)nn(Cc4ccc(Cl)cc4F)c3C2)C1 (stereo not drawn) [Example 15-5, 2-(3-(1-(4-Chloro-2-fluorobenzyl)-3-(trifluoromethyl)-4,5,6,7-tetrahydro-1H-pyrazolo[3,4-c]pyridine-6-carbonyl)pyrrolidin-1-yl)acetic acid TFA salt] | –
19 | ≤ 0.1 µM | C[C@]1(C(=O)O)CC[C@@H](CC(=O)N2CCc3c(C(F)(F)F)nn(Cc4ccc(F)cc4)c3C2)CC1 [Example 7-25, cis-4-(2-(1-(4-fluorobenzyl)-3-(trifluoromethyl)-4,5-dihydro-1H-pyrazolo[3,4-c]pyridin-6(7H)-yl)-2-oxoethyl)-1-methylcyclohexanecarboxylic acid] | –
20 | 0.25 to 0.5 µM | CN(C)C12CCC(C(=O)N3CCc4c(C(F)(F)F)nn(Cc5ccc(F)cc5)c4C3)(CC1)CC2 [Example 10-9, (4-(dimethylamino)bicyclo[2.2.2]octan-1-yl)(1-(4-fluorobenzyl)-3-(trifluoromethyl)-4,5-dihydro-1H-pyrazolo[3,4-c]pyridin-6(7H)-yl)methanone trifluoroacetate salt TFA salt] | –
21 | ≤ 0.1 µM | O=C(O)C1CCCN(CC(=O)N2CCc3c(C(F)(F)F)nn(Cc4ccc(Cl)cc4F)c3C2)C1 (stereo not drawn) [Example 13-3, 1-(2-(1-(4-Chloro-2-fluorobenzyl)-3-(trifluoromethyl)-4,5-dihydro-1H-pyrazolo[3,4-c]pyridin-6(7H)-yl)-2-oxoethyl)piperidine-3-carboxylic acid] | –
22 | ≤ 0.1 µM | O=C(O)C1CC2(C1)CN(CC(=O)N1CCc3c(C(F)(F)F)nn(Cc4ccc(Cl)cc4F)c3C1)C2 [Example 13-21, 2-(2-(1-(4-Chloro-2-fluorobenzyl)-3-(trifluoromethyl)-4,5-dihydro-1H-pyrazolo[3,4-c]pyridin-6(7H)-yl)-2-oxoethyl)-2-azaspiro[3.3]heptane-6-carboxylic acid TFA salt] | –
23 | ≤ 0.1 µM | O=C(O)C1CC(CC(=O)N2CCc3c(C(F)(F)F)nn(Cc4ccc(Cl)cc4F)c3C2)C1 (mixture of isomers) [Example 6-8, 3-(2-(1-(4-Chloro-2-fluorobenzyl)-3-(trifluoromethyl)-4,5-dihydro-1H-pyrazolo[3,4-c]pyridin-6(7H)-yl)-2-oxoethyl)cyclobutanecarboxylic acid] | –
24 | ≤ 0.1 µM | O=C(O)[C@H]1CC(CC(=O)N2CCc3c(C(F)(F)F)nn(Cc4ccc(Cl)cc4F)c3C2)CN1 (stereo partly drawn) [Example 9-14, (2R)-4-(2-(1-(4-Chloro-2-fluorobenzyl)-3-(trifluoromethyl)-4,5-dihydro-1H-pyrazolo[3,4-c]pyridin-6(7H)-yl)-2-oxoethyl)pyrrolidine-2-carboxylic acid TFA salt] | –
25 | ≤ 0.1 µM | O=C(CC1CCNC1)N1CCc2c(C(F)(F)F)nn(Cc3ccc(F)cc3)c2C1 (stereo not drawn) [Example 9-23, 1-(1-(4-Fluorobenzyl)-3-(trifluoromethyl)-4,5-dihydro-1H-pyrazolo[3,4-c]pyridin-6(7H)-yl)-2-(pyrrolidin-3-yl)ethanone hydrochloride] | –
26 | ≤ 0.1 µM | CCC1CC(CC(=O)N2CCc3c(C(F)(F)F)nn(Cc4ccc(F)cc4)c3C2)CCN1C(=O)OC(C)(C)C (stereo not drawn) [Example 8-8, tert-Butyl 2-ethyl-4-(2-(1-(4-fluorobenzyl)-3-(trifluoromethyl)-4,5-dihydro-1H-pyrazolo[3,4-c]pyridin-6(7H)-yl)-2-oxoethyl)piperidine-1-carboxylate] | –
27 | ≤ 0.1 µM | CC1(C(=O)O)CC(CC(=O)N2CCc3c(C(F)(F)F)nn(Cc4ccc(Cl)cc4F)c3C2)C1 (stereo not drawn) [Example 6-18, 3-(2-(1-(4-Chloro-2-fluorobenzyl)-3-(trifluoromethyl)-4,5-dihydro-1H-pyrazolo[3,4-c]pyridin-6(7H)-yl)-2-oxoethyl)-1-methylcyclobutanecarboxylic acid] | –
